Test results taken from the supplement of paper PMC10307832.

Columns and labels:
Assay in all cases: relative viability (nuclei count vs DMSO), 5 days (fraction); higher = more cells survive
[1] = compound: O=C(O)c1ccc2c(c1)nc(Nc1cccc(Cl)c1)c1ccncc12 [Silmitasertib] + Nc1ncn([C@H]2C[C@H](O)[C@@H](CO)O2)c(=O)n1 [Decitabine] (partner 2 µM)
Outline: (§1)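 Lung cancer cell lines in 1536-well plates were dosed by pin tool the day after seeding, either with one drug alone or with a fixed anchor-drug dose plus five library-drug doses (not always all listed) in √10 steps. After 5 days, cells were fixed and their nuclei stained in one step (final 0.05% Triton X-100, 1% formaldehyde, 1 ug/ml Hoechst), then counted on 4× images. Relative viability is the nuclei count in treated wells divided by that in vehicle wells. Values are medians of duplicate plates.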

[2] = compound: O=C(O)c1ccc2c(c1)nc(Nc1cccc(Cl)c1)c1ccncc12 [Silmitasertib] + Cc1nc(NC(=O)N2CCC[C@H]2C(N)=O)sc1-c1ccnc(C(C)(C)C(F)(F)F)c1 [Alpelisib] (partner 2 µM)
Outline: as §1

[3] = compound: O=C(O)c1ccc2c(c1)nc(Nc1cccc(Cl)c1)c1ccncc12 [Silmitasertib] + O=C(CCCCCCC(=O)Nc1ccccc1)NO [Vorinostat] (partner 1 µM)
Outline: as §1

Silmitasertib + Olaparib = compound: O=C(O)c1ccc2c(c1)nc(Nc1cccc(Cl)c1)c1ccncc12 [Silmitasertib] + O=C(c1cc(Cc2n[nH]c(=O)c3ccccc23)ccc1F)N1CCN(C(=O)C2CC2)CC1 [Olaparib] (partner 8 µM)
Outline: as §1

[4] = compound: O=C(O)c1ccc2c(c1)nc(Nc1cccc(Cl)c1)c1ccncc12 [Silmitasertib] + Nc1nc2[nH]cc(CCc3ccc(C(=O)N[C@@H](CCC(=O)O)C(=O)O)cc3)c2c(=O)[nH]1 [Pemetrexed] (partner 0.2 µM)
Outline: as §1

| Cell Line | relative viability ([1]; first compound 0.04 µM) | relative viability ([1]; first compound 0.4 µM) | relative viability ([1]; first compound 1.265 µM) | relative viability ([1]; first compound 4 µM) | relative viability ([2]; first compound 0.04 µM) | relative viability ([2]; first compound 1.265 µM) | relative viability ([2]; first compound 4 µM) | relative viability ([3]; first compound 0.04 µM) | relative viability ([3]; first compound 0.4 µM) | relative viability ([3]; first compound 1.265 µM) | relative viability ([3]; first compound 4 µM) | relative viability (Silmitasertib + Olaparib; first compound 0.04 µM) | relative viability (Silmitasertib + Olaparib; first compound 0.4 µM) | relative viability (Silmitasertib + Olaparib; first compound 1.265 µM) | relative viability (Silmitasertib + Olaparib; first compound 4 µM) | relative viability ([4]; first compound 0.04 µM) | relative viability ([4]; first compound 0.4 µM) | relative viability ([4]; first compound 1.265 µM) | relative viability ([4]; first compound 4 µM) | relative viability ([2]; first compound 0.4 µM) |
| --- | --- | --- | --- | --- | --- | --- | --- | --- | --- | --- | --- | --- | --- | --- | --- | --- | --- | --- | --- | --- |
| NCI-H1437 | 0.578 | 0.533 | 0.445 | 0.411 | 0.976 | 0.741 | 0.498 | 0.844 | 0.787 | 0.701 | 0.43 | 0.648 | 0.645 | 0.521 | 0.483 | 0.337 | 0.3 | 0.254 | 0.228 | – |
| NCI-H1734 | 0.613 | 0.52 | 0.536 | 0.412 | 0.688 | 0.649 | 0.66 | 0.849 | 0.705 | 0.874 | 0.582 | 0.607 | 0.373 | 0.583 | 0.549 | 0.443 | 0.336 | 0.423 | 0.386 | – |
| LK-2 | 0.312 | – | 0.194 | 0.21 | 1.28 | 0.914 | 0.943 | 0.296 | – | 0.404 | 0.18 | 0.798 | 0.283 | 0.663 | 0.346 | 0.254 | – | 0.084 | 0.297 | 0.921 |
| HCC-15 | 0.703 | 0.536 | 0.404 | 0.292 | 0.972 | 0.618 | 0.45 | 1.02 | 0.699 | 0.579 | 0.671 | 0.777 | 0.508 | 0.595 | 0.39 | 0.242 | 0.229 | 0.216 | 0.215 | 0.683 |
| HCC-366 | 0.37 | 0.347 | 0.31 | 0.379 | 0.453 | 0.317 | 0.383 | 0.396 | 0.221 | 0.413 | 0.0566 | 0.396 | 0.213 | 0.373 | 0.387 | 0.13 | 0.162 | 0.175 | 0.128 | – |
| NCI-H650 | 0.309 | 0.315 | 0.322 | 0.341 | 1.16 | 1.09 | 0.99 | 0.626 | 0.281 | 0.475 | 0.244 | 0.4 | 0.232 | 0.317 | 0.294 | 0.981 | 0.433 | 0.912 | 0.659 | 0.648 |
| NCI-H2347 | 0.637 | 0.558 | 0.606 | 0.579 | 1.07 | 0.93 | 0.904 | 0.565 | 0.502 | 0.565 | 0.479 | 0.602 | 0.52 | 0.56 | 0.507 | 0.44 | – | 0.363 | 0.42 | 0.854 |
| LXF-289 | 0.41 | – | 0.377 | 0.405 | 1.06 | 1.09 | 1.07 | 0.751 | – | 0.747 | 0.862 | 0.995 | – | 0.935 | 1.07 | 0.968 | – | 0.8 | 0.824 | – |
| BEN | 0.866 | 0.685 | 0.537 | 0.656 | 1.02 | 0.896 | 0.956 | 0.648 | 0.475 | 0.456 | 0.545 | 1.31 | 0.506 | 0.964 | 1.15 | 0.905 | 0.715 | 0.703 | 0.609 | 0.783 |
| NCI-H2023 | 0.239 | 0.225 | 0.208 | 0.195 | 0.684 | 0.599 | 0.399 | 0.839 | 0.268 | 0.63 | 0.374 | 0.532 | 0.363 | 0.46 | 0.468 | 0.278 | 0.187 | 0.266 | 0.21 | 0.522 |
| NCI-H661 | 0.636 | 0.617 | 0.548 | 0.441 | 0.784 | 0.547 | 0.338 | 0.812 | 0.847 | 0.737 | 0.631 | 0.735 | 0.679 | 0.629 | 0.493 | 0.93 | 0.966 | 0.865 | 0.666 | – |
| NCI-H1355 | 0.343 | – | 0.371 | 0.285 | 0.911 | 0.721 | 0.766 | 0.664 | – | 0.622 | 0.499 | 0.727 | – | 0.698 | 0.615 | 1.04 | – | 1.01 | 0.852 | – |
| NCI-H1793 | 0.499 | 0.458 | 0.493 | 0.419 | 0.694 | 0.656 | 0.564 | 0.989 | 0.619 | 0.718 | 0.213 | 0.924 | 0.715 | 0.769 | 0.625 | 1.08 | 0.851 | 0.719 | 0.425 | 0.619 |
| COR-L 105 | 0.626 | 0.599 | 0.672 | 0.454 | 1.16 | 0.803 | 0.664 | 0.843 | 0.901 | 0.688 | 0.663 | 0.716 | 0.614 | 0.689 | 0.5 | 1.05 | 1.19 | 0.951 | 0.785 | 1.06 |
| NCI-H838 | 0.459 | 0.427 | 0.402 | 0.341 | 1.05 | 0.967 | 0.556 | 0.787 | 0.837 | 0.807 | 0.848 | 0.849 | 0.521 | 0.635 | 0.491 | 0.231 | 0.234 | 0.227 | 0.213 | – |
| EMC-BAC-2 | 1.01 | 0.951 | 0.93 | 0.819 | 0.743 | 0.558 | 0.547 | 0.595 | 0.455 | 0.287 | 0.169 | 0.477 | 0.358 | 0.333 | 0.283 | 0.455 | 0.319 | 0.423 | 0.369 | 0.627 |
| LU99A | 0.824 | 0.837 | 0.808 | 0.605 | 0.502 | 0.399 | 0.471 | 0.519 | 0.546 | 0.482 | 0.374 | 0.277 | 0.287 | 0.216 | 0.204 | 0.187 | 0.168 | 0.148 | 0.168 | 0.521 |
